# From patent US20120015981A1, “Active compound combinations” (Bayer CorpScience AG, priority 2009, published 2012)
# Tested on: Microdochium nivale
# Test: Microdochium nivale test (lawn)/protective
# Assay type: in vivo
# Conditions: lawn (100% Agrostis stolonifera) in dishes; preventive application at 2000, 1000, 500 and 100 g/ha, 24 hours before inoculation with infected wheat grains; scoring after 5, 7, 14 and 21 days
# Description: Microdochium nivale Test (Lawn)/Protective
# Lawn seed (100% Agrostis stolonifera) was sown in dishes of the dimensions 38 cm×15 cm×9 cm. 7 days after sowing, the lawn was cut prior to preventive guanidinium hydroxide application at application rates of 2000, 1000, 500 and 100 g/ha. The water application rates were […] (converted). 24 hours after the preventive application of the active compound, the lawn was inoculated by placing of wheat grains infected with Microdochium nivale. In each case 3 wheat grains were placed into a single dish. Scoring of the subsequent fungal growth in the lawn dishes was carried out after 5, 7, 14 and 21 days. In the dishes which had been treated with guanidinium hydroxide, an inhibition of the growth of Microdochium nivale of up to 30% (Abbott) was observed.
compound,measurement,value
N=C(N)N.O [guanidinium hydroxide],inhibition of the growth of Microdochium nivale,up to 30 % (Abbott)
